Patent publication US9156792B2, “Retinamide and uses thereof” (UNIVERSITY OF MARYLAND, BALTIMORE, priority 2008, dated 2015)

Tested on: RARα,β,γ receptors
Test: not given
Details: compared with ATRA; cited from earlier work

Compound | binding and activation of RARα,β,γ receptors
CC1=C(/C=C/C(C)=C/C=C/C(C)=C/C(=O)O)C(C)(C)CCC1n1ccnc1 (stereo not drawn) [VN/14-1] | binds and activates the RARα,β,γ receptors, albeit it is significantly less potent than ATRA

Tested on: PC-3 prostate cancer cells
Test: MTT assay of PC-3 prostate cancer cell growth (proliferation) inhibition
Type: cell-based, human
Details: Homo sapiens, 144 h, PC-3 cells, 6 days of treatment, read-out: GI50 Values (concentrations that cause 50% growth inhibition)
Description: Data are means (SEM<±5%) of at least three independent experiments.
Compounds VNLG/145, VNLG/146, VNLG/147, VNLG/148, VNLG/152 and VNLG/153 were tested and evaluated for their ability to inhibit the growth (proliferation) of PC-3 prostate cancer cells using the MTT [3-(4,5-dimethylthiazol-2-yl)-2,5-diphenyltetrazolium bromide] assay (Gediyal et al. 2005). VN/66-1 of U.S. Pat. No. 7,265,143 was tested side by side for comparison. The GI50 values (concentrations that cause 50% growth inhibition) were determined from dose-response curves. See in FIG. 1 for VNLG/145.
The growth inhibitory experiments with the other compounds gave plots that were similar to FIG. 1.

GI50 [µM] | Compound
14.1 ± 7.12 | CC1=C(/C=C/C(C)=C/C=C/C(C)=C/C(=O)Nc2cc(C(F)(F)F)ccc2C(F)(F)F)C(C)(C)CCC1n1ccnc1 (stereo not drawn)
5.62 ± 0.37 | CC1=C(/C=C/C(C)=C/C=C/C(C)=C/C(=O)Nc2ncnc3[nH]cnc23)C(C)(C)CCC1n1ccnc1 (stereo not drawn)
1.7 ± 0.05 | CC1=C(/C=C/C(C)=C/C=C/C(C)=C/C(=O)Nc2ccc(O)cc2)C(C)(C)CCC1n1ccnc1 (stereo not drawn)
1.86 ± 0.05 | CC1=C(/C=C/C(C)=C/C=C/C(C)=C/C(=O)NC(C)(C)C)C(C)(C)CCC1n1ccnc1 (stereo not drawn) [drawing 35]
1.7 ± 0.07 | CC1=C(/C=C/C(C)=C/C=C/C(C)=C/C(=O)Nc2ccccc2O)C(C)(C)CCC1n1ccnc1 (stereo not drawn) [drawing 37]
0.61 ± 0.11 | CC1=C(/C=C/C(C)=C/C=C/C(C)=C/C(=O)Nc2ccc(F)cc2)C(C)(C)CCC1n1ccnc1 (stereo not drawn) [drawing 39]
1.17 ± 0.05 | CC1=C(/C=C/C(C)=C/C=C/C(C)=C/C(=O)Nc2ccccc2)C(C)(C)CCC1n1ccnc1 (stereo not drawn) [drawing 40]

Same assay, conditions: PC-3 cells, side by side with VN/66-1

Compound | potency (growth inhibition) compared with VN/66-1
CC1=C(/C=C/C(C)=C/C=C/C(C)=C/C(=O)NC(C)(C)C)C(C)(C)CCC1n1ccnc1 (stereo not drawn) [VNLG/145] | potencies similar to VN/66-1
CC1=C(/C=C/C(C)=C/C=C/C(C)=C/C(=O)Nc2ccccc2O)C(C)(C)CCC1n1ccnc1 (stereo not drawn) [VNLG/147] | potencies similar to VN/66-1
CC1=C(/C=C/C(C)=C/C=C/C(C)=C/C(=O)Nc2ccc(F)cc2)C(C)(C)CCC1n1ccnc1 (stereo not drawn) [VNLG/152] | potencies better than VN/66-1
CC1=C(/C=C/C(C)=C/C=C/C(C)=C/C(=O)Nc2ccccc2)C(C)(C)CCC1n1ccnc1 (stereo not drawn) [VNLG/153] | potencies better than VN/66-1
